Test results reported in patent US10301284B2, “Therapeutic inhibitory compounds” (LifeSci Pharmaceuticals, Inc., priority 2016, dated 2019).
Like-named read-outs stand apart in the source and are kept apart here.

Molecular target: human Plasma Kallikrein (Homo sapiens (Human), UniProt P03952)
Experiment: In vitro enzyme inhibition of human plasma kallikrein (Pro-Phe-Arg-AMC cleavage)
Type: biochemical
Method: The ability of the compounds disclosed herein to inhibit human plasma kallikrein activity was quantified according to the procedures below.
A 10 mM solution of the test compound was made in DMSO. This solution was serially diluted 1:5 in DMSO to yield 2000, 400, 80, 16, 3.2, 0.64, 0.128, 0.0256 and 0.00512 μM compound test solutions. A control tube containing only DMSO is included. 16 μL of each compound test solution was combined with 384 μL of assay buffer (50 mM Tris-HCl pH 7.5, 150 mM NaCl, 0.01% Triton X-100) to yield a “4× test compound buffer stock”.
Separately, a 40 nM solution of human Plasma Kallikrein (Abcam) and a 93.6 μM solution Pro-Phe-Arg-AMC (Bachem) were made using assay buffer. These solutions are hereby referred to as 4×hPK and 2×PFR-AMC, respectively.
60 μL of each 4× test compound buffer stock was combined with 60 μL of 4×hPK to yield 120 μL of “2× test compound buffer stock/2×hPK”. 50 μL was removed from this mixture and placed into duplicate wells on a Microfluor 1Black U-bottom microtiter plate (Thermo Scientific). This plate was incubated for 5 minutes at 37° C. To each well, 50 μL of pre-warmed 2×PFR-AMC was added to start the enzymatic reaction. Cleavage of PFR-AMC was monitored in a Biotek Synergy H4 reader set at 37° C. Readings are taken every 43 seconds for 1 hour. The highest mean velocity over 20 reads (˜15 minutes) is used to calculate the IC50. The IC50 is calculated using the Gen5 (Biotek Instruments).
The ability of the compounds listed in Table 2 to inhibit human plasma kallikrein activity was determined.

[1] = human plasma kallikrein, PFR-AMC substrate, 37° C., read-out: hPK IC50

human Plasma Kallikrein, sequence (P03952 391-638 limits assumed): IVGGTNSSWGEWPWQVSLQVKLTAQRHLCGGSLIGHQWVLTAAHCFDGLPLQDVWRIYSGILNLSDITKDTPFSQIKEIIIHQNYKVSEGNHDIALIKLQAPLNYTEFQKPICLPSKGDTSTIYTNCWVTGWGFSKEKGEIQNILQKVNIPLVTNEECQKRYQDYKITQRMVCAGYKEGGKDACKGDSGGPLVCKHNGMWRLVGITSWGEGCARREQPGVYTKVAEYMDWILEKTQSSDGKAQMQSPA
human Plasma Kallikrein, sequence (P03952 20-390 partner limits assumed): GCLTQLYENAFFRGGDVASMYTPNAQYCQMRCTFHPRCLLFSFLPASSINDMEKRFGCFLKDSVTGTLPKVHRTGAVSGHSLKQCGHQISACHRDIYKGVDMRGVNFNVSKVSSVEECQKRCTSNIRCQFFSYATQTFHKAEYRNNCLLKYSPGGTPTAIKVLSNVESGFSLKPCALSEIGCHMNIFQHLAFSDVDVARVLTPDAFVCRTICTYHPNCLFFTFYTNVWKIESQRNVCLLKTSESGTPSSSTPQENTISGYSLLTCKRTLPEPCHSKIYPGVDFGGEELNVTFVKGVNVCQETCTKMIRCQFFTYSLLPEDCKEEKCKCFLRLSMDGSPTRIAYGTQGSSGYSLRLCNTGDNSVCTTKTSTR

Molecule | IC50 [1] [nM] | IC50 [nM]
Cc1cc(N)nc(C)c1CNC(=O)c1cn(Cc2cc(S(N)(=O)=O)c3ncc(Cl)cc3c2)nc1C#N [Example 60, N-((6-amino-2,4-dimethylpyridin-3-yl)methyl)-1-((3-chloro-8-sulfamoylquinolin-6-yl)methyl)-3-cyano-1H-pyrazole-4-carboxamide] | < 100 | 
Cc1cc(N)nc(C)c1CNC(=O)c1c2ccccc2nn1Cc1ccc2ncc(Cl)cc2c1 [Example 14, N-((6-amino-2,4-dimethylpyridin-3-yl)methyl)-2-((3-chloroquinolin-6-yl)methyl)-2H-indazole-3-carboxamide] | > 10000 | 
O=C(NCc1cc2c(Cl)c[nH]c2cc1F)c1nnc(Cc2ccc3ncc(Cl)cc3c2)o1 [Example 44, N-((3-chloro-6-fluoro-1H-indol-5-yl)methyl)-5-((3-chloroquinolin-6-yl)methyl)-1,3,4-oxadiazole-2-carboxamide] | 100 to 1000 | 
Cc1nc(N)ccc1CNC(=O)c1nnc(Cc2ccc3ncc(Cl)cc3c2)[nH]1 [Example 97, N-((6-amino-2-methylpyridin-3-yl)methyl)-5-((3-chloroquinolin-6-yl)methyl)-4H-1,2,4-triazole-3-carboxamide] | < 100 | 
Cc1cc(N)nc(C)c1CNC(=O)c1cnn(Cc2cc(F)c3ncc(Cl)cc3c2)c1C(N)=O [Example 71, N4-((6-amino-2,4-dimethylpyridin-3-yl)methyl)-1-((3-chloro-8-fluoroquinolin-6-yl)methyl)-1H-pyrazole-4,5-dicarboxamide] | > 10000 | 
COC(=O)c1nc(C(=O)NCc2c(C)cc(N)nc2C)nn1Cc1ccc2ncc(Cl)cc2c1 [Example 102, methyl 3-(((6-amino-2,4-dimethylpyridin-3-yl)methyl)carbamoyl)-1-((3-chloroquinolin-6-yl)methyl)-1H-1,2,4-triazole-5-carboxylate] | > 10000 | 
Cc1cnc2c(C#N)cc(Cn3cc(C(=O)NCc4c(C)cc(N)nc4C)c(C(N)=O)n3)cc2c1 [Example 63, N4-((6-amino-2,4-dimethylpyridin-3-yl)methyl)-1-((8-cyano-3-methylquinolin-6-yl)methyl)-1H-pyrazole-3,4-dicarboxamide] | 100 to 1000 | 
Cc1cc(N)nc(C)c1CNC(=O)c1nn(Cc2ccc3ncc(Cl)cc3c2)c2cc[nH]c(=O)c12 [Example 120, N-((6-amino-2,4-dimethylpyridin-3-yl)methyl)-1-((3-chloroquinolin-6-yl)methyl)-4-oxo-4,5-dihydro-1H-pyrazolo[4,3-c]pyridine-3-carboxamide] | 1000 to 10000 | 
N-((6-amino-2,4-dimethylpyridin-3-yl)methyl)-1-((3-chloroquinolin-6-yl)methyl)-3-cyano-1H-1,2,4-triazole-5-carboxamide [Example 107] | 100 to 1000 | 
Cc1cc(N)nc(C)c1CNC(=O)c1cn(Cc2ccc3ncc(Cl)cc3c2)c2ccnc(C#N)c12 [Example 133, N-((6-amino-2,4-dimethylpyridin-3-yl)methyl)-1-((3-chloroquinolin-6-yl)methyl)-4-cyano-1H-pyrrolo[3,2-c]pyridine-3-carboxamide] | < 100 | 
Cc1cc(N)nc(C)c1CNC(=O)c1c(C(F)(F)F)nnn1Cc1ccc2ncc(Cl)cc2c1 [Example 141, N-((6-amino-2,4-dimethylpyridin-3-yl)methyl)-1-((3-chloroquinolin-6-yl)methyl)-4-(trifluoromethyl)-1H-1,2,3-triazole-5-carboxamide] | > 10000 | 
Cc1cc(N)nc(C)c1CNC(=O)c1cnn(Cc2cc(F)c3ncc(Cl)cc3c2)c1C#N [Example 70, N-((6-amino-2,4-dimethylpyridin-3-yl)methyl)-1-((3-chloro-8-fluoroquinolin-6-yl)methyl)-5-cyano-1H-pyrazole-4-carboxamide] | > 10000 | 
Cc1cc(N)nc(C)c1CNC(=O)c1cc(C#N)n(Cc2ccc3ncc(Cl)cc3c2)n1 [Example 108, N-((6-amino-2,4-dimethylpyridin-3-yl)methyl)-1-((3-chloroquinolin-6-yl)methyl)-5-cyano-1H-pyrazole-3-carboxamide] | 100 to 1000 | 
Cc1cc(N)nc(C)c1CNC(=O)c1cn(Cc2ccc3ncc(Cl)cc3c2)c2ccccc12 [Example 11, N-((6-amino-2,4-dimethylpyridin-3-yl)methyl)-1-((3-chloroquinolin-6-yl)methyl)-1H-indole-3-carboxamide] | < 100 | 
Cc1cc(N)nc(C)c1CNC(=O)c1nn(Cc2ccc3ncc(Cl)cc3c2)c2cccc(N)c12 [Example 33, 4-amino-N-((6-amino-2,4-dimethylpyridin-3-yl)methyl)-1-((3-chloroquinolin-6-yl)methyl)-1H-indazole-3-carboxamide] |  | 100 to 1000
Cc1cc(N)nc(C)c1CNC(=O)c1nn(Cc2ccc3ncc(Cl)cc3c2)cc1[N+](=O)[O-] [Example 18, N-((6-amino-2,4-dimethylpyridin-3-yl)methyl)-1-((3-chloroquinolin-6-yl)methyl)-4-nitro-1H-pyrazole-3-carboxamide] | < 100 | 
Cc1cc(N)nc(C)c1CNC(=O)c1cn(Cc2ccc3ncc(Cl)cc3c2)nc1C(F)F [Example 91, N-((6-amino-2,4-dimethylpyridin-3-yl)methyl)-1-((3-chloroquinolin-6-yl)methyl)-3-(difluoromethyl)-1H-pyrazole-4-carboxamide] | < 100 | 
O=C(NCc1ccc2[nH]cc(Cl)c2c1F)c1nnc(Cc2ccc3ncc(Cl)cc3c2)o1 [Example 43, N-((3-chloro-4-fluoro-1H-indol-5-yl)methyl)-5-((3-chloroquinolin-6-yl)methyl)-1,3,4-oxadiazole-2-carboxamide] | 100 to 1000 | 
Cc1cc(N)nc(C)c1CNC(=O)c1cc(C#N)nn1Cc1ccc2ncc(Cl)cc2c1 [Example 109, N-((6-amino-2,4-dimethylpyridin-3-yl)methyl)-1-((3-chloroquinolin-6-yl)methyl)-3-cyano-1H-pyrazole-5-carboxamide] | > 10000 | 
Cc1nc(N)ccc1CNC(=O)c1oc(Cc2ccc3ncc(Cl)cc3c2)nc1C#N [Example 88, N-((6-amino-2-methylpyridin-3-yl)methyl)-2-((3-chloroquinolin-6-yl)methyl)-4-cyanooxazole-5-carboxamide] | 100 to 1000 | 
Cc1nc(N)ccc1CNC(=O)c1ncc(Cc2ccc3ncc(Cl)cc3c2)o1 [Example 84, N-((6-amino-2-methylpyridin-3-yl)methyl)-5-((3-chloroquinolin-6-yl)methyl)oxazole-2-carboxamide] | < 100 | 
COc1ccc2c(n1)c(C(=O)NCc1c(C)cc(N)nc1C)cn2Cc1ccc2ncc(Cl)cc2c1 [Example 128, N-((6-amino-2,4-dimethylpyridin-3-yl)methyl)-1-((3-chloroquinolin-6-yl)methyl)-5-methoxy-1H-pyrrolo[3,2-b]pyridine-3-carboxamide] |  | 1000 to 10000
Cc1cc(N)nc(C)c1CNC(=O)c1cn(Cc2ccc3ncc(Cl)cc3c2)nc1C(C)O (centres unmarked) [Example 94, N-((6-amino-2,4-dimethylpyridin-3-yl)methyl)-1-((3-chloroquinolin-6-yl)methyl)-3-(1-hydroxyethyl)-1H-pyrazole-4-carboxamide] | < 100 | 
N#Cc1nn(Cc2ccc3ncc(Cl)cc3c2)cc1C(=O)NCc1cnc2[nH]cc(Cl)c2c1 [Example 50, N-((3-chloro-1H-pyrrolo[2,3-b]pyridin-5-yl)methyl)-1-((3-chloroquinolin-6-yl)methyl)-3-cyano-1H-pyrazole-4-carboxamide] | 100 to 1000 | 
Cc1cc(N)nc(C)c1CNC(=O)c1nn(Cc2ccc3ncc(Cl)cc3c2)c2ccnc(Cl)c12 [Example 119, N-((6-amino-2,4-dimethylpyridin-3-yl)methyl)-4-chloro-1-((3-chloroquinolin-6-yl)methyl)-1H-pyrazolo[4,3-c]pyridine-3-carboxamide] |  | 100 to 1000
Cc1cc(N)nc(C)c1CNC(=O)c1nn(Cc2ccc3ncc(Cl)cc3c2)c2cnc(C#N)cc12 [Example 130, N-((6-amino-2,4-dimethylpyridin-3-yl)methyl)-1-((3-chloroquinolin-6-yl)methyl)-5-cyano-1H-pyrazolo[3,4-c]pyridine-3-carboxamide] | < 100 | 
Cc1cc(N)nc(C)c1CNC(=O)c1cn(Cc2ccc3ncc(Cl)cc3c2)c(C#N)n1 [Example 113, N-((6-amino-2,4-dimethylpyridin-3-yl)methyl)-1-((3-chloroquinolin-6-yl)methyl)-2-cyano-1H-imidazole-4-carboxamide] | 100 to 1000 | 
Cc1cc(N)nc(C)c1CNC(=O)c1cn(Cc2ccc3ncc(Cl)cc3c2)c(C(N)=O)n1 [Example 111, N4-((6-amino-2,4-dimethylpyridin-3-yl)methyl)-1-((3-chloroquinolin-6-yl)methyl)-1H-imidazole-2,4-dicarboxamide] | 100 to 1000 | 
N#Cc1nn(Cc2ccc3ncc(Cl)cc3c2)cc1C(=O)NCc1ccc2[nH]cc(Cl)c2c1F [Example 47, N-((3-chloro-4-fluoro-1H-indol-5-yl)methyl)-1-((3-chloroquinolin-6-yl)methyl)-3-cyano-1H-pyrazole-4-carboxamide] | 100 to 1000 | 
